Results reported in patent publication US20240415819A1, “MACROCYCLIC COMPOUNDS AS PROTEASOME SUBUNIT BETA TYPE-5 INHIBITORS” (Lead Discovery Center GmbH, priority 2021, published 2024).
Like-named read-outs stand apart in the source and are kept apart here.

How the values were obtained:
Karpas cells = assay: Glo assay of Karpas cells (Table 3; ProteasomeGlo plating scheme); format: cell-based; details: read-out: Pglo Karpas
Source text: Inhibition is indicated as IC50 [nM] (“-”=not measured). […] • Chymotrypsin-Like Cell-Based Proteasome-GloTM Assay (Promega; […]) • Cell culture 384-well plates (Greiner BioOne; 781080) • Dispensing cassette, MultiDrop Standard tube dispensing cassette (Thermo Scientific; 24072670) • DPBS (Pan BioTech; P04-36500) • Cell culture 384-well plates (Greiner BioOne; 781080) • CPD source plate: diamond-shape plate (Labcyte; LP-0200) • Intermediate plate (Labcyte; P-05525) [table] • a. Remove the plates with cells from the incubator. • b. Take all the plates including the compound plate, intermediate plate and Staurosporine plate to the ECHO. • c. Click on “Open” in the ECHO software and select the protocol “QLI5_25ul_30 uM-Grenier”. • d. Follow the on-screen prompts and instructions once you click “Start” to insert the compound plate, intermediate plate and destination plates. • e. Change the final number of destination plates on the program. • f. Follow the on-screen prompts and instructions once you click “Start” to load the Staurosporine and destination plates. • g. Once all the compounds, DMSO and Staurosporine have been transferred, place the destination plates in a wet tissue box. • h. Place the destination plates back into the incubator and incubate at 37° C., 5% CO2 for 105 minutes. • i. Re-seal all the compound+Stauro diamond and intermediate plates and store in the dark. Chymotrypsin like ProteasomeGlo Assay • 1. Thaw the components of the ProteasomeGlo assay at room temperature including the ProteasomeGlo Buffer, the lyophilized Luciferin Detection Reagent and the Suc-LLVY-Glo Substrate. • 2. Reconstitute the Luciferin Detection Reagent in the amber coloured bottle by adding 50 ml of the ProteasomeGlo Buffer. • 3. Vortex the Suc-LLVY-Glo Substrate briefly to reconstitute the Substrate well. • 4. Spin down the Substrate and add 250 μl of the Substrate to the reconstituted Luciferin Detection Reagent from step 2. • 5. Briefly vortex the amber bottle with the mix to prepare a homogenous solution. • 6. Place the mix prepared in step 5 to sit at room temperature for 60 minutes. • 7. After 60 minutes, pipette 25 μl of the mix from step 5 into all wells with the cells. • 8. Shake the plates for 2-5 minutes to ensure the complete mixing of the ProteasomeGlo reagent with the cells. • 9. Leave the plates in the dark for 10-15 minutes. • 10. Measure the luminescence read-out using the Viktor and the protocol “Luminescence_384Well_0.2 sec”. (Note: The Protoeasome-GloTM Reagent (combined Proteasome-GloTM Substrate, Proteasome-GloTM Buffer and Luciferin Detection Reagent) can be stored at 4° C. or -20° C. for 1 month with minimal loss of activity.)

[1] = tested on: B-cells isolated from PBMC's; assay: Chymotrypsin-like ProteasomeGlo assay in B-cells isolated from PBMCs; format: cell-based, human; details: Homo sapiens
Source text: PBMC's will be isolated from human blood followed by B-cell isolation from the PBMC's using the Miltenyi Isolation Kit. • 2. This experiment will use the Chymotrypsin-like ProteasomeGlo read-out to generate IC50's following compound treatment. • 3. Dilute all compounds 1:100 for the assay. • 4. […] Repeat the DMSO transfer with lane 12. • 5. Lane 12 should not be seeded with any cells. Only medium! • 6. For all steps, make sure the samples and reagents remain cool! • 7. While dealing with the buffy coats, be careful to not let any exposed skin to be in direct contact with the blood. […] PBMC isolation followed by B-cell isolation using the Miltenyi Kit • Day 2: B-cell plating, ECHO transfer and ProteasomeGlo assay For the initial steps and to make processing the buffy coats easier, separately process the buffy coats. • a. Cut the tube attached to the buffy coats carefully using a clean, sterile and fresh scalpel. • b. Transfer the blood into 2 individual 50 ml falcons. • c. Add an equal volume of DPBS to the blood in the falcons. • d. Add 20 ml of lymphocyte separating medium to two 50 ml falcons. • e. Carefully pour 15-20 ml of the blood+DPBS mix from step c. onto the lymphocyte separating medium from step d. • f. Centrifuge the falcons with the lymphocyte separating medium+blood mix at 800×g for 15 minutes using a swing-out rotor. • g. Following centrifugation, carefully remove the falcons from the centrifuge. • h. The following layers will be observed: • i. Aspirate the plasma layer off carefully without disturbing the different layers. • j. Remove the cell pellet using a pipette into two fresh 50 ml falcons. • k. Fill the falcons with the cells up to 50 ml with DPBS. • l. Centrifuge the falcons at 250×g for 10 minutes using a swing-out rotor (Brake-off). • m. Aspirate the complete DPBS off the cells without disturbing the cell pellet at the bottom of the falcon. • n. Re-suspend the cell pellet in 10 ml of 1×RBC lysis buffer. • o. Incubate the falcons at room temperature in the dark for 10 minutes. • p. After RBC lysis, centrifuge the tubes at 250×g for 10 minutes using a swing-out rotor (brake-off). • (*Note: If the cell pellet is still red or light red, repeat steps n. to p.!) • q. Re-suspend the cell pellet in DPBS up to 50 ml in the falcon. • r. Centrifuge the falcons at 250×g for 10 minutes using a swing-out rotor (Brake-off). • s. Aspirate the DPBS off the cells without disturbing the cell pellet at the bottom of the falcon. • t. Repeat the wash step as described in steps q. to s. 2× times more (total number of washes is 3×). • u. Aspirate the DPBS completely off the cell pellet after the last wash without disturbing the cell pellet. • v. Re-suspend the cell pellet in 20 ml of PBMC cell medium. • w. […] Re-suspend the pellet in volume of the B-cell isolation buffer calculated as follows: • k. Mix well using a 1 ml pipette and incubate the mix on ice for 20 mins. • l. In the meantime, equilibrate one LS Column as follows: • 1. Insert one LS Column into one slot of the separator as depicted in the pictures above. • 2. Place a 50 ml falcon at the bottom of the LS column to collect the wash flow-through. • 3. Add 3 ml of the B-cell isolation buffer into the column. • 4. Allow the buffer to flow-through making sure that the entire volume passes the column and that the column reservoir is empty before the addition of the cells. • 5. Remove the falcon with the flow-through and discard. • m. Place a fresh 50 ml falcon under the LS Column to collect the untouched B-cells isolated from the PBMCs. • n. Apply the entire volume of the cell+antibody+microbeads mix to the LS Column. • o. Collect the flow-through from each application of the mix into the same 50 ml falcon under the LS Column. • p. Once the complete volume of the cell+antibody+microbead mix has been passed through, proceed to washing of the column. • q. Add 3 ml of the B-cell isolation buffer to the LS Column and allow the buffer to flow-through. […]

[2] = B-cells isolated from PBMC's, read-out: Pglo B-Cell

| IC50 (Karpas cells) | Compound | IC50 [1, 2] | IC50 ([1]; read-out: Pglo B-Cell [nM]) |
| --- | --- | --- | --- |
| < 100 nM | Cc1ccc2cc1CNC(=O)[C@H](CCc1ccccc1)NC(=O)[C@@H](NC(=O)[C@@H](C)c1ccccc1)CC(=O)N1CCCC(CCO2)C1 (stereo partly drawn) [Compound 81, (2S)-N-((9S,12S)-5^4-methyl-8,11,14-trioxo-9-phenethyl-4-oxa-7,10-diaza-1(3,1)-piperidina-5(1,3)-benzenacyclotetradecaphane-12-yl)-2-phenylpropanamide] | < 100 nM |  |
|  | Cc1ccc2cc1CNC(=O)[C@H](CCc1ccccc1)NC(=O)[C@@H](NC(=O)c1ccccn1)CC(=O)N1CCCC(CCO2)C1 (stereo partly drawn) [Compound 40, N-((9S,12S)-5^4-methyl-8,11,14-trioxo-9-phenethyl-4-oxa-7,10-diaza-1(3,1)-piperidina-5(1,3)-benzenacyclotetradecaphane-12-yl)picolinamide] | < 100 nM |  |
| < 100 nM | Cc1ccc2cc1CNC(=O)[C@H](CCc1ccccc1)NC(=O)[C@@H](NC(=O)CN1CCOCC1)CC(=O)N1CCCC(CCO2)C1 (stereo partly drawn) [Compound 88, N-((9S,12S)-5^4-methyl-8,11,14-trioxo-9-phenethyl-4-oxa-7,10-diaza-1(3,1)-piperidina-5(1,3)-benzenacyclotetradecaphane-12-yl)-2-morpholinoacetamide] | < 100 nM |  |
| < 100 nM | Cc1ccc2cc1CNC(=O)[C@H](CCc1ccccc1)NC(=O)[C@@H](NC(=O)[C@H](C)c1ccccc1)CC(=O)N1CCCC(CCO2)C1 (stereo partly drawn) [Compound 80, (2R)-N-((9S,12S)-5^4-methyl-8,11,14-trioxo-9-phenethyl-4-oxa-7,10-diaza-1(3,1)-piperidina-5(1,3)-benzenacyclotetradecaphane-12-yl)-2-phenylpropanamide] | < 100 nM |  |
|  | Cc1ccc2cc1CNC(=O)[C@H](CCc1ccccc1)NC(=O)[C@@H](NC(=O)c1ccccc1)CC(=O)N1CCCC(CCO2)C1 (stereo partly drawn) [Compound 26, N-((9S,12S)-5^4-methyl-8,11,14-trioxo-9-phenethyl-4-oxa-7,10-diaza-1(3,1)-piperidina-5(1,3)-benzenacyclotetradecaphane-12-yl)benzamide] | < 100 nM |  |
|  | Cc1ccc2cc1CNC(=O)C(CCc1cccnc1)NC(=O)CCC(=O)N1CCCC(CCO2)C1 (stereo not drawn) [Compound 51, 5^4-methyl-9-(2-(pyridin-3-yl)ethyl)-4-oxa-7,10-diaza-1(3,1)-piperidina-5(1,3)-benzenacyclotetradecaphane-8,11,14-trione] | < 100 nM |  |
|  | CCOC(=O)N[C@H]1CC(=O)N2CCCC(CCOc3ccc(C)c(c3)CNC(=O)[C@H](CCc3ccccc3)NC1=O)C2 (stereo partly drawn) [Compound 39, ethyl ((9S,12S)-5^4-methyl-8,11,14-trioxo-9-phenethyl-4-oxa-7,10-diaza-1(3,1)-piperidina-5(1,3)-benzenacyclotetradecaphane-12-yl)carbamate] |  | < 100 nM |
| < 100 nM | Cc1ccc2cc1CNC(=O)[C@H](CCc1ccccc1)NC(=O)[C@@H](NC(=O)CN1CCCC1)CC(=O)N1CCCC(CCO2)C1 (stereo partly drawn) [Compound 89, N-((9S,12S)-5^4-methyl-8,11,14-trioxo-9-phenethyl-4-oxa-7,10-diaza-1(3,1)-piperidina-5(1,3)-benzenacyclotetradecaphane-12-yl)-2-(pyrrolidin-1-yl)acetamide] |  |  |
| 500 to 1000 nM | Cc1ccc2cc1CNC(=O)[C@H](Cc1ccccc1)NC(=O)CCC(=O)N1CCCC(CCO2)C1 (stereo partly drawn) [Compound 79, (9S)-9-benzyl-5^4-methyl-4-oxa-7,10-diaza-1(3,1)-piperidina-5(1,3)-benzenacyclotetradecaphane-8,11,14-trione] | 500 to 1000 nM |  |
| < 100 nM | CO[C@@H](C(=O)N[C@H]1CC(=O)N2CCCC(CCOc3ccc(C)c(c3)CNC(=O)[C@H](CCc3ccccc3)NC1=O)C2)c1ccccc1 (stereo partly drawn) [Compound 86, (2R)-2-methoxy-N-((9S,12S)-5^4-methyl-8,11,14-trioxo-9-phenethyl-4-oxa-7,10-diaza-1(3,1)-piperidina-5(1,3)-benzenacyclotetradecaphane-12-yl)-2-phenylacetamide] |  |  |
| < 100 nM | COc1cccc(CC(=O)N[C@H]2CC(=O)N3CCCC(CCOc4ccc(C)c(c4)CNC(=O)[C@H](CCc4ccccc4)NC2=O)C3)c1 (stereo partly drawn) [Compound 85, 2-(3-methoxyphenyl)-N-((9S,12S)-5^4-methyl-8,11,14-trioxo-9-phenethyl-4-oxa-7,10-diaza-1(3,1)-piperidina-5(1,3)-benzenacyclotetradecaphane-12-yl)acetamide] |  |  |
| < 100 nM | Cc1ccc2cc1CNC(=O)[C@H](CCc1ccccc1)NC(=O)[C@@H](NC(=O)c1cc3cc(C(F)(F)F)ccc3n1C)CC(=O)N1CCCC(CCO2)C1 (stereo partly drawn) [Compound 87, 1-methyl-N-((9S,12S)-5^4-methyl-8,11,14-trioxo-9-phenethyl-4-oxa-7,10-diaza-1(3,1)-piperidina-5(1,3)-benzenacyclotetradecaphane-12-yl)-5-(trifluoromethyl)-1H-indole-2-carboxamide] |  |  |
|  | Cc1ccc2cc1CNC(=O)[C@H](CCc1ccccc1)NC(=O)[C@@H](NC(=O)CCc1cccc(F)c1)CC(=O)N1CCCC(CCO2)C1 (stereo partly drawn) [Compound 25, 3-(3-fluorophenyl)-N-((9S,12S)-5^4-methyl-8,11,14-trioxo-9-phenethyl-4-oxa-7,10-diaza-1(3,1)-piperidina-5(1,3)-benzenacyclotetradecaphane-12-yl)propanamide] | < 100 nM |  |
| < 100 nM | COc1ccccc1CC(=O)N[C@H]1CC(=O)N2CCCC(CCOc3ccc(C)c(c3)CNC(=O)[C@H](CCc3ccccc3)NC1=O)C2 (stereo partly drawn) [Compound 84, 2-(2-methoxyphenyl)-N-((9S,12S)-5^4-methyl-8,11,14-trioxo-9-phenethyl-4-oxa-7,10-diaza-1(3,1)-piperidina-5(1,3)-benzenacyclotetradecaphane-12-yl)acetamide] |  |  |
